Results on five compounds are retold here after paper PMC4871627 (Journal of medicinal chemistry, 2016).

Molecules are shown by their SMILES.

For one test, the target named is HIV RT polymerase (Human immunodeficiency virus type 1 group M subtype B, UniProt P04585). The test is classed as biochemical, HIV-1. To be noted: RNase H with HTS-1 as substrate.
A further test addresses HIV integrase (Human immunodeficiency virus type 1 group M subtype B, UniProt P04585). The experiment in a line: HIV IN strand transfer. The class given is biochemical, HIV-1. To be noted: INST IC50, tested 0.13-100 µM.

For the compound `Cc1ccc(-c2ccc(Nc3cc(=O)n(O)c(=O)[nH]3)cc2)cc1` [11b, 3-Hydroxy-6-((4'-methyl-[1,1'-biphenyl]-4-yl)amino)pyrimidine-2,4(1H,3H)-dione], the “SI (IC50 RT pol / IC50 RNase H)” value on HIV RT polymerase is 5.7 (14).

`COc1ccc(-c2cccc(Nc3cc(=O)n(O)c(=O)[nH]3)c2)cc1` [11j, 3-Hydroxy-6-((4'-methoxy-[1,1'-biphenyl]-3-yl)amino)pyrimidine-2,4(1H,3H)-dione]: at HIV RT polymerase, the “SI (IC50 RT pol / IC50 RNase H)” value is 6.3 (32). At HIV integrase, this compound showed an IC50 of more than 100000 nM.

On HIV integrase, `COc1ccc(-c2cccc(Nc3cc(=O)n(O)c(=O)[nH]3)c2)c(OC)c1` [11l, 6-((2',4'-Dimethoxy-[1,1'-biphenyl]-3-yl)amino)-3-hydroxypyrimidine-2,4(1H,3H)-dione] returned an IC50 of 1200 to 1300 nM.

`COc1cccc(OC)c1-c1cccc(Nc2cc(=O)n(O)c(=O)[nH]2)c1` [11m, 6-((2',6'-Dimethoxy-[1,1'-biphenyl]-3-yl)amino)-3-hydroxypyrimidine-2,4(1H,3H)-dione] registered an IC50 against HIV integrase of 1200 to 1300 nM.

Turning to `O=c1cc(Nc2cccc(-c3ccc(F)cc3)c2)[nH]c(=O)n1O` [11o, 6-((4'-Fluoro-[1,1'-biphenyl]-3-yl)amino)-3-hydroxypyrimidine-2,4(1H,3H)-dione], the “SI (IC50 RT pol / IC50 RNase H)” value at HIV RT polymerase is recorded as 6.6 (33). At HIV integrase, this compound returned an IC50 of more than 100000 nM.

A word on the IC50: it is the midpoint of a concentration-inhibition curve.
